Several values for one entry are separate records, joined by “and”; a condition that tells them apart may be missing. Equal values may be shown once.
What was measured:
[1] = system: endogenous clozapine-binding sites; assay: Autoradiography: displacement of [3H]clozapine in WT / non-DREADD mouse brain tissue; details: individual values
Source text: (§1) Flash frozen tissue (both rodents and the monkey) was sectioned (20 µm) on a cryostat (Leica, Germany) and thaw mounted onto ethanol-washed glass slides. […] Slides were air dried and placed in a Hypercassette™ (Amersham Biosciences) and covered with a BAS-TR2025 Storage Phosphor Screen (FujiFilm, Japan). The slides were exposed to the screen for 5–7 days and imaged using a phosphor imager (Typhoon FLA 7000; GE Healthcare).

[2] = system: 5-HT receptors; assay: Binding and enzyme target profile screen (Eurofins); details: competitive binding screen
Description: These experiments were performed by an outside vendor (Eurofins, France). […] In each experiment, the respective reference compound was tested concurrently with the test compound to assess the assay reliability. […] Following incubation, the samples were filtered rapidly under vacuum through glass fiber filters presoaked in a buffer and rinsed several times with an ice-cold buffer using a 48-sample or 96-sample cell harvester. The filters were counted for radioactivity in a scintillation counter using a scintillation cocktail.

[3] = system: endogenous binding sites; assay type: in vivo; details: monkey
Description: (§2) All macaque studies were acquired dynamically on the Focus 220 PET scanner (Siemens Medical Solutions, Knoxville, TN). The Focus 220 is a dedicated pre-clinical scanner with a transaxial FOV of 19 cm and an axial FOV of 7.5 cm. Image resolution is <2 mm within the central 5 cm FOV.
(§3) After initial evaluation the monkey was sedated with ketamine (10 mg kg^−1) followed by ketoprofen (as an analgesic) and glycopyrrolate (for salvia reduction), all weight dependent IM injections. The monkey would then be placed in the supine position, intubated with a tracheal tube. Anesthesia was maintained by 1–3.5% isoflurane and oxygen, the monkey’s head was positioned and immobilized for optimal positioning of the brain and moved into the scanner. A 10-min transmission scan using a Co-57-point source for attenuation correction was performed. One iv was inserted, if possible, in the right arm and one in the right leg for injection of tracer and blocking agent. The monkey was always monitored while anesthetized. HR, BP, O2 saturation, RR, three lead ECG, rectal temperature was documented every 15 min.
Arterial blood sampling was acquired throughout the study using an indwelling femoral port. The first 2 min samples were collected every 15 s then at 3, 5, 10, 30, 60, 90, and 120 min post tracer injection. All scans were acquired for 120 min using list mode acquisition. […]
To determine the arterial input function for the radiotracers injected in rhesus monkeys radioligand concentrations in the arterial plasma were corrected by the unchanged parent fraction. […] The unchanged plasma parent fractions were determined by radio-HPLC on an X-terra® C18 column (10 µm, 7.8 mm × 300 mm, Waters Corp., Milford, MA), and eluted with MeOH:H2O:Et3N (80:20:0.1; by volume) at an isocratic flow rate of 4.0 mL min^−1. Eluates were monitored with an in-line flow-through NaI(Tl) scintillation detector (Bioscan). Data were stored and analyzed on a PC using the software “Bio-ChromeLite”. […] Plasma free fraction was determined according to our previous methods.

[4] = biological target: hM3Dq (Homo sapiens, UniProt P20309, A239G/Y149C); assay: Autoradiography: displacement of [3H]clozapine from hM3Dq in mouse brain sections; assay type: binding; parameters: 026220; host or cells: mouse brain, dopamine D1 receptor-expressing neurons (transgene); details: hM3Dq and hM4Di; up to 10 nM
Source text: as §1

[5] = biological target: T1, hM4Di (Homo sapiens, UniProt P08173, A203G/Y113C); assay: [11C]clozapine PET occupancy in monkey expressing hM4Di in the amygdala; assay type: in vivo, rhesus monkey (Macaca mulatta); parameters: expressed in transfected cells; host or cells: rhesus monkey (Macaca mulatta) right amygdala, lentivirus-transduced neurons
T1 sequence (P08173 1-479 Y113C/A203G): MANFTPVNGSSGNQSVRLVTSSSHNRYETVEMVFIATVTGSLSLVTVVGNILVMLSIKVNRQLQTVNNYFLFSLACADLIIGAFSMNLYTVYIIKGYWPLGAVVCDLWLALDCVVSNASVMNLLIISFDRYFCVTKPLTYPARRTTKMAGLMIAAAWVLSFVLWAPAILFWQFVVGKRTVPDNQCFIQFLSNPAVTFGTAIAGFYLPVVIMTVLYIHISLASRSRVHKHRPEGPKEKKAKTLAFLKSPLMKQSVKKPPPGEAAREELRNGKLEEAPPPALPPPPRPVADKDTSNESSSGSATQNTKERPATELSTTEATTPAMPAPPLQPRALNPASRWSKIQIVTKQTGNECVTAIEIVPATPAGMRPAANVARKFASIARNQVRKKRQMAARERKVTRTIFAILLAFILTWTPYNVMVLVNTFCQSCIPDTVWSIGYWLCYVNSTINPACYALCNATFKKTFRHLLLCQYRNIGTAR
Description: Lentivirus expressing an hM4Di-CFP fusion protein under an hSyn promoter[11] with a titer of >10^9 infectious particles was loaded into a 100 µL glass syringe (Hamilton Co., MA). The 31-gauge needle of the syringe was sheathed with a silica capillary (450 µm OD) to create a step 1 mm from the base of the aperture. The syringe was mounted in a Nanomite pump (Harvard Apparatus, Cambridge, MA). The needle was lowered through the incision in the dura mater to each of the pre-calculated target sites and 10 or 20 µL was infused at a rate of 1 µL min^−1. Each monkey received a total of between 10 and 12 injections (for a total injection volume of 120–240 µL). Post-infusion, the needle was left in situ for 10 min after each injection to allow pressure from the infusate to dissipate. The needle was then slowly removed. At the completion of the injection series the soft tissues were sutured together in anatomical layers.
as §2, §3
Arterial blood sampling was acquired throughout the study using an indwelling femoral port. The first 2 min samples were collected every 15 s then at 3, 5, 10, 30, 60, 90, and 120 min post tracer injection. All scans were acquired for 120 min using list mode acquisition.
Scan data were histogrammed into 33 frames (6 × 30 s, 3 × 1 min, 2 × 2 min, and 22 × 5 min). Reconstruction was performed by Filtered Back Projection with scatter correction. After completion of the last study of the day, isoflurane was cut off. The monkey was gradually awakened, moved to the housing facility and fully recovered.

Chain of hM3Dq (P20309 whole entry Y149C/A239G): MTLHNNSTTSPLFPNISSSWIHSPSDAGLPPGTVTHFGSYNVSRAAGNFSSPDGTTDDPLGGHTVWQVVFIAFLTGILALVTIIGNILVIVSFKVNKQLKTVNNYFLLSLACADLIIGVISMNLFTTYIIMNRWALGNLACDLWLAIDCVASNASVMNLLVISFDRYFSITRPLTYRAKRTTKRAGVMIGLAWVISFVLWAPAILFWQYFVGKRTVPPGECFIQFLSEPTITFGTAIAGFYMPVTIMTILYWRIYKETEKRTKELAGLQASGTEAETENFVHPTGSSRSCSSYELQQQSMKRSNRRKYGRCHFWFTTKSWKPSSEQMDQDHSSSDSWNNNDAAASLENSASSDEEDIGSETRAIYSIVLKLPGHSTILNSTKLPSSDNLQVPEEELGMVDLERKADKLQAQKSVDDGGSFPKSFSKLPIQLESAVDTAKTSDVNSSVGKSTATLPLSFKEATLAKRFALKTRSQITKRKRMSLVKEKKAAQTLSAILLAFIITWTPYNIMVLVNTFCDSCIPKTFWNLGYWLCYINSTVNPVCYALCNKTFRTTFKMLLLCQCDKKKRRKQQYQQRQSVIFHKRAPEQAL

SMILES | [3H]CLZ binding in mouse brain sections, WT ([1]; competitor concentration 0.001, listed as J60) | [3H]CLZ binding in mouse brain sections, WT ([1]; competitor concentration 0.01, listed as J60) | [3H]CLZ binding in mouse brain sections, WT ([1]; competitor concentration 1, listed as J60) | affinity at 5-HT receptors relative to clozapine [2] | [11C]clozapine binding after drug, L_Amygdala ([3]; 0.1 mg kg-1) | [11C]clozapine binding after drug, PFC ([3]; 0.1 mg kg-1) | in situ [3H]clozapine displacement in brain tissue from WT and D1-DREADD mice [4] | [11C]clozapine displacement at hM4Di expressed in the amygdala ([5]; 0.1 mg kg-1 (lesser extent 0.01 mg kg-1)) | [11C]clozapine binding after drug, R_Amygdala ([5]; 0.1 mg kg-1, hM4Di-expressing region) | off-target effects ([3]; 10 mg/kg) | in vivo DREADD occupancy ([5]; 1 mg/kg IV) | hM4Di occupancy ([5]; 10 mg/kg) | [3H]CLZ binding in mouse brain sections, WT ([1]; competitor concentration 0.001, listed as J52) | [3H]CLZ binding in mouse brain sections, WT ([1]; competitor concentration 0.01, listed as J52) | [3H]CLZ binding in mouse brain sections, WT ([1]; competitor concentration 1, listed as J52)
CCN1CCN(C2=Nc3cc(Cl)ccc3Nc3c(F)cccc32)CC1 [JHU37160, 8-Chloro-11-(4-ethylpiperazin-1-yl)-4-fluoro-5H-dibenzo[b,e][1,4]diazepine] | 106.379 and 101.292 and 102.926 and 122.941 and 108.508 and 97.311 | 120.43 and 105.789 and 111.318 and 118.633 and 118.689 and 124.215 | 55.5737 and 82.7293 and 46.5386 and 44.7797 and 54.5308 and 62.9299 | lower affinity than clozapine | 0.2865 | 0.3429 | selective [^3H]clozapine displacement from DREADDs and not from other clozapine-binding sites | produced [^11C]clozapine DREADD displacement at hM4Di | 0.6176 | – | – | – | – | – | –
c1ccc2c(c1)N=C(N1CCNCC1)c1ccccc1N2 [C21] | – | – | – | – | – | – | – | – | – | extensive displacement of [^11C]clozapine binding at endogenous binding sites and non-specific effects | no measurable occupancy | ~ 50% | – | – | –
CCN1CCN(C2=Nc3cc(Cl)ccc3Nc3cccc(F)c32)CC1 [JHU37152, 8-Chloro-11-(4-ethylpiperazin-1-yl)-1-fluoro-5H-dibenzo[b,e][1,4]diazepine] | – | – | – | lower affinity than clozapine | – | – | selective [^3H]clozapine displacement from DREADDs and not from other clozapine-binding sites | – | – | – | – | – | 119.578 and 91.3526 and 103.192 and 105.979 and 100.87 and 101.941 | 85.3632 and 98.6721 and 100.487 and 96.5233 and 115.016 and 88.1843 | 68.3087 and 51.6943 and 71.7816 and 75.1729 and 78.8993 and 70.8806

From article PMC6788984, “High-potency ligands for DREADD imaging and activation in rodents and monkeys” (Nature Communications, 2019)
